“Also recorded” adds a separate entry of the source.
Molecular target: protein kinase
Assay: HTS ATP-utilizing enzyme assay, off-chip mobility-shift format (Caliper HTS 250)
Assay type: biochemical, human
Settings: test compound 10 μM; for Kinase: kinase(s) for which the compound exhibits protein kinase inhibitory activity, active = greater than three-sigma from the mean activity of inactive compounds; for protein kinase against which the compound exhibits inhibitory activity (Table 3): active = activity greater than three-sigma from the mean of the predominately inactive population for that enzyme
Method in brief: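 Kinase reactions ran 2.5 h at 20 to 22 °C with test compound at 10 μM, in a HEPES pH 7.5 master buffer containing Triton X-100 and BSA. Peptide substrate and phosphorylated product separated by mobility shift; inhibition normalized to DMSO (0%) and EDTA (100%) controls, with three-sigma thresholds for hits.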

| Compound | Kinase | protein kinase against which the compound exhibits inhibitory activity (Table 3) |
| --- | --- | --- |
| Cn1c(S)nnc1COc1ccc(Br)cc1 [5-((4-bromophenoxy)methyl)-4-methyl-4H-1,2,4-triazole-3-thiol] | CDK2-cyclinE |  |
| Oc1ccccc1-c1nnc(S)n1CCc1ccccc1 [2-(5-mercapto-4-phenethyl-4H-1,2,4-triazol-3-yl)phenol] | CDK2-cyclinE; also recorded: DAPK1 |  |
| C(=C\c1ccccc1)/CSc1nnc(-c2ccncc2)n1-c1ccccc1 [(E)-4-(5-(cinnamylthio)-4-phenyl-4H-1,2,4-triazol-3-yl)pyridine] |  | GSK3-β and GSK3-α and MSK1 |
| CCn1c(SCC#N)nnc1C1CCCCC1 [2-(5-cyclohexyl-4-ethyl-4H-1,2,4-triazol-3-ylthio)acetonitrile] | AURORA-A and MSK1 |  |
| CCOc1ccc(NCc2nnc(SCCN3CCOCC3)n2-c2cccc(Cl)c2)cc1 |  | FYN and FLT-3 and PDGFRR-α |
| COCCCn1c(C)nnc1SCC(=O)NCc1ccco1 | FYN |  |
| CCOC(=O)CSc1nnc(-c2ccncc2)[nH]1 [ethyl 2-(5-(pyridin-4-yl)-4H-1,2,4-triazol-3-ylthio)acetate] | CDK2-cyclinA and AURORA-A and CDK5 |  |
| CN(C)CCCSc1nnc(C2CCCC2)[nH]1 |  | c-TAK1 |
| CCOC(=O)c1cccc(NC(=O)CSc2nnc(CNc3ccc(OC)cc3)n2-c2ccc(OC)cc2)c1 | AURORA-A; also recorded: PDGFRR-α; also recorded: CHEK2 |  |
| CN(C)CCCSc1nnc(C(C)(C)C)[nH]1 [3-(5-tert-butyl-4H-1,2,4-triazol-3-ylthio)-N,N-dimethylpropan-1-amine] |  | c-TAK1 |
| Cc1ccc([N+](=O)[O-])cc1NC(=O)CSc1nnc(-c2ccc([N+](=O)[O-])cc2)n1C | PDGFRR-α |  |
| CCn1c(COc2ccc(C)cc2)nnc1SCc1ccc(C)cc1 [4-ethyl-3-(4-methylbenzylthio)-5-(p-tolyloxymethyl)-4H-1,2,4-triazole] |  | AURORA-A |
| FC(F)(F)c1cccc(-c2nnc(SCC3CCCO3)[nH]2)c1 (centres unmarked) |  | AURORA-A |
| CC(C)(C)c1nnc(SCC#N)[nH]1 [2-(5-tert-butyl-4H-1,2,4-triazol-3-ylthio)acetonitrile] | DYRK2; also recorded: GSK3-α |  |
| COc1ccccc1-c1nnc(S)n1-c1ccc(C)cc1 [5-(2-methoxyphenyl)-4-p-tolyl-4H-1,2,4-triazole-3-thiol] | CDK2-cyclinA and CDK2-cyclinE and CDK5 |  |
| NC(=O)c1c(NC(=O)CSc2nnc(-c3ccncc3)n2CC2CCCO2)sc2c1CCCC2 (centres unmarked) | GSK3-β; also recorded: GSK3-α; also recorded: AURORA-A |  |
| CCn1c(SCC(=O)c2ccc(C)cc2)nnc1-c1ccc(S(=O)(=O)N2CCCCCC2)cc1 | AURORA-A |  |

| Compound | Kinase | protein kinase against which the compound exhibits inhibitory activity (Table 3) |
| --- | --- | --- |
| COc1ccc(C(=O)NNC(=O)CSc2nnc(-c3ccc(O)cc3)n2Cc2ccco2)cc1 |  | GSK3-β; also recorded: AURORA-A; also recorded: PDGFRR-α |
| CCn1c(SCc2ccc(Cl)cc2)nnc1-c1ccc(O)cc1 [4-(5-(4-chlorobenzylthio)-4-ethyl-4H-1,2,4-triazol-3-yl)phenol] |  | MSK2 and GSK3-β and MSK1 |
| CCc1nnc(NC(=O)CSc2nnc(-c3ccc(S(=O)(=O)N4CCN(C)CC4)cc3)n2CC)s1 | CHEK2 |  |
| COc1ccc(NCc2nnc(S)n2-c2ccc(C)cc2)cc1 [5-((4-methoxyphenylamino)methyl)-4-p-tolyl-4H-1,2,4-triazole-3-thiol] | AURORA-A and PDGFRR-α and MSK2 |  |
| CCOc1ccc(NCc2nnc(S)n2-c2cccc(Cl)c2)cc1 | PDGFRR-α; also recorded: FLT-3 |  |
| O=C(O)c1ccc(-n2c(S)nnc2-c2cc(C3CC3)n[nH]2)cc1 | GSK3-α |  |
| O=C(NCCSc1nnc(-c2cccc(C(F)(F)F)c2)[nH]1)c1ccccc1 |  | GSK3-β; also recorded: GSK3-α; also recorded: CHEK2 |
| COc1ccccc1-n1c(SCC(=O)Nc2cccc(NC(=O)C3CCCO3)c2)nnc1-c1ccccc1O (centres unmarked) |  | AURORA-A |
| Cc1nnc(SCc2cccc(I)c2)[nH]1 [3-(3-iodobenzylthio)-5-methyl-4H-1,2,4-triazole] |  | AURORA-A; also recorded: GSK3-α; also recorded: DYRK2 |
| CCOc1ccc(Nc2nnc(SCC(=O)c3cc(C(C)(C)C)c(O)c(C(C)(C)C)c3)n2-c2ccc(OCC)cc2)cc1 | FYN |  |
| OCC(O)CSc1nnc(-c2ccc(OC(F)(F)F)cc2)[nH]1 (centres unmarked) |  | AURORA-A; also recorded: FLT-3; also recorded: DYRK2 |
| Cc1ccc(-n2c(S)nnc2CNc2ccc(F)cc2)cc1 [5-((4-fluorophenylamino)methyl)-4-p-tolyl-4H-1,2,4-triazole-3-thiol] | AURORA-A; also recorded: GSK3-α; also recorded: GSK3-β |  |
| O=C(CSc1nnc(-c2ccncc2)[nH]1)c1c[nH]c2ccccc12 [1-(1H-indol-3-yl)-2-(5-(pyridin-4-yl)-4H-1,2,4-triazol-3-ylthio)ethanone] | CHEK2 and AURORA-A and PKA |  |
| Cc1nnc(SCC(=O)O)[nH]1 [2-(5-methyl-4H-1,2,4-triazol-3-ylthio)acetic acid] | GSK3-β; also recorded: GSK3-α |  |
| COc1ccccc1-n1c(SCCC(=O)O)nnc1C1CCCCC1 |  | GSK3-α |
| Cc1nnc(SCc2ccccc2)n1CCc1ccccc1 [3-(benzylthio)-5-methyl-4-phenethyl-4H-1,2,4-triazole] |  | GSK3-β; also recorded: GSK3-α; also recorded: c-TAK1 |

The remaining lines, values ahead:

| Kinase | protein kinase against which the compound exhibits inhibitory activity (Table 3) | Compound |
| --- | --- | --- |
| GSK3-α |  | O=C(CSc1nnc(-c2ccc(O)cc2)n1-c1cccc(Cl)c1)NCc1ccccc1 |
| INSR |  | COc1ccc(-c2nnc(SCC(C)=O)n2-c2ccccc2)cc1 [1-(5-(4-methoxyphenyl)-4-phenyl-4H-1,2,4-triazol-3-ylthio)propan-2-one] |
| FYN and PDGFRR-α and FLT-3 |  | CCOc1ccc(NCc2nnc(SCC(=O)Nc3cccc(C(C)=O)c3)n2-c2ccccc2)cc1 |
| LYNA |  | Cc1ccc(-n2c(CNc3cccc(Cl)c3)nnc2SCC(=O)c2ccc(Cl)cc2)cc1 |
| GSK3-α; also recorded: CHEK2 |  | Cn1c(S)nnc1-c1ccc(NC(=O)c2ccccc2)cc1 [N-(4-(5-mercapto-4-methyl-4H-1,2,4-triazol-3-yl)phenyl)benzamide] |
| CHEK2 |  | CCOC(=O)CSc1nnc(CNc2ccc(C)c(Cl)c2)n1CC1CCCO1 (centres unmarked) |
|  | AURORA-A; also recorded: FLT-3 | c1ccc(CCSc2nnc(-c3cccs3)[nH]2)cc1 [3-(phenethylthio)-5-(thiophen-2-yl)-4H-1,2,4-triazole] |
| CHEK2 |  | CCOC(=O)c1ccc(NC(=O)CSc2nnc(CNc3ccc(C)cc3)n2CC)cc1 |
| GSK3-β; also recorded: GSK3-α |  | COC(=O)c1ccccc1NC(=O)CSc1nnc(-c2ccc(O)cc2)n1C |
| AKT1 |  | CC(=O)c1ccc(NC(=O)CSc2nnc(-c3ccc(O)cc3)n2C)cc1 |
| AURORA-A |  | COc1ccccc1-n1c(SCC(=O)O)nnc1-c1cccnc1 |
| GSK3-β; also recorded: GSK3-α |  | Cc1ccc(NC(=O)CSc2nnc(-c3ccc(O)cc3)n2C)cc1 |
| MSK1 |  | N#CCSc1nnc(CNc2ccc(Cl)cc2)n1Cc1ccccc1 |
| MAPKAPK-2 |  | Cn1c(SCC(=O)N2CCc3ccccc32)nnc1-c1ccc(N)cc1 |
| GSK3-α |  | O=C(CSc1nnc(-c2ccc(O)cc2)n1-c1ccccc1)c1ccccc1 |
| LCK |  | CC1CCN(C(=O)CSc2nnc(Cc3ccccc3)n2-c2cccc(Cl)c2)CC1 |
| c-TAK1 |  | CCn1c(SCC(=O)N(C(C)C)C(C)C)nnc1-c1cc2ccccc2cc1O |
| AURORA-A |  | NC(=O)CSc1nnc(-c2ccc(NS(=O)(=O)c3ccccc3)cc2)n1-c1ccccc1 |

| Kinase | protein kinase against which the compound exhibits inhibitory activity (Table 3) | Compound |
| --- | --- | --- |
| FYN |  | Cn1c(CNc2nc(-c3ccccc3)cs2)nnc1SCC(N)=O |
| CDK2-cyclinA |  | CCn1c(CNc2cccc(Cl)c2)nnc1SCC#N |
| FYN |  | COc1ccc(NCc2nnc(SCC#N)n2-c2ccccc2OC)cc1 |
| GSK3-β and GSK3-α and MSK1 |  | Cn1c(SCC(=O)c2ccccc2)nnc1-c1ccc(O)cc1 |
| PDGFRR-α and PKA |  | Cn1c(CNc2nc(-c3ccccc3)cs2)nnc1SCC(=O)NCc1ccccc1 |
|  | MSK2 | Cc1cccc(OCc2nnc(SCC(=O)N3c4ccccc4CCc4ccccc43)n2C)c1C |
| PRAK and CHEK2 |  | COc1ccc(-c2nnc(SCC(=O)Nc3ccccc3)n2-c2ccccc2)cc1 |
| HCK |  | CCOc1ccc(NC(=O)CSc2nnc(-c3ccc(O)cc3)n2-c2ccccc2)cc1 |
|  | AURORA-A | CCSc1nnc(COc2ccc(CC)cc2)n1C [3-((4-ethylphenoxy)methyl)-5-(ethylthio)-4-methyl-4H-1,2,4-triazole] |
| GSK3-β; also recorded: GSK3-α |  | COc1ccc(-n2c(SCC(N)=O)nnc2-c2ccc(O)cc2)cc1 |
| FYN |  | COc1ccc(CCNC(=O)CSc2nnc(-c3cc4ccccc4cc3O)n2C)cc1OC |
|  | ROCK2 | COc1ccccc1-n1c(SCCn2cccc2)nnc1-c1cccc(Cl)c1 |
| MAPKAPK-2; also recorded: CDK2-cyclinE |  | CCOC(=O)CSc1nnc(-c2ccc(OC)c(OC)c2)n1-c1ccccc1 [ethyl 2-(5-(3,4-dimethoxyphenyl)-4-phenyl-4H-1,2,4-triazol-3-ylthio)acetate] |
| GSK3-β; also recorded: GSK3-α |  | O=C(O)CSc1nnc(-c2ccc(O)cc2)n1-c1ccccc1 [2-(5-(4-hydroxyphenyl)-4-phenyl-4H-1,2,4-triazol-3-ylthio)acetic acid] |
| AURORA-A |  | CC(Sc1nnc(COc2ccccc2)n1C)C(=O)O (centres unmarked) [2-(4-methyl-5-(phenoxymethyl)-4H-1,2,4-triazol-3-ylthio)propanoic acid] |
| AURORA-A |  | Cc1ccc(-n2c(SCC(=O)CC(=O)Nc3ccccc3)nnc2-c2cccnc2)cc1 |
|  | FYN and PDGFRR-α | COc1ccc(NCc2nnc(SCCN3CCCCC3)n2C)cc1 |
